Data published in PMC7663772, “Optimizing the Profile of [^99mTc]Tc–NT(7–13) Tracers in Pancreatic Cancer Models by Means of Protease Inhibitors” (International Journal of Molecular Sciences, 2020).

How the values were obtained:
PANC-1 cells = test: NTS1R-specific cell uptake/internalization in PANC-1 cells; format: cell-based, human
Procedure: (§1) The human pancreatic adenocarcinoma AsPC-1, PANC-1, MiaCapa-2, and Capan-1 cell lines were obtained from LGC Standards GmbH (Wesel, Germany). All culture reagents were purchased from Gibco BRL, Life Technologies (Grand Island, NY, USA) or from Biochrom KG Seromed (Berlin, Germany). Cells were grown in Roswell Park Memorial Institute-1640 Medium (RPMI-1640; AsPC-1 cells) or Dulbecco’s Modified Eagle’s Medium (DMEM; PANC-1, MiaCapa-2, and Capan-1 cells) with GlutaMAX-I, supplemented with 10% (v/v) fetal bovine serum (FBS), 100 U/mL penicillin, and 100 μg/mL streptomycin, and kept in a controlled humidified air containing 5% CO2 at 37 °C. […]
(§2) For internalization assays, AsPC-1, PANC-1, MiaCapa-2, and Capan-1 cells were seeded in six-well plates (≈1 × 10^6 cells per well) the day before the experiment. […] Non-specific internalization was determined by a parallel triplicate series containing 1 μM NT. […] Sample radioactivity was measured on the gamma counter, and the percentage of specific internalized and membrane-bound fractions were calculated with Microsoft Excel (after subtracting the non-specific from the overall internalized and membrane-bound counts). Results represent the specific mean internalized ± SD of total added radioactivity per well from three experiments performed in triplicate. […]

WiDr cells = tested on: WiDr cells; design: method as in PMID 32526874; details: 1 h incubation ref 39; cited from earlier work
AsPC-1 cells = test: NTS1R-specific cell uptake/internalization in AsPC-1 cells; format: cell-based, human; details: for specific cell uptake: AsPC-1 cells, 1 h incubation at 37 °C, NTS1R-specific (non-specific with 1 μM NT subtracted)
Procedure: The human pancreatic adenocarcinoma AsPC-1, PANC-1, MiaCapa-2, and Capan-1 cell lines were obtained from LGC Standards GmbH (Wesel, Germany). All culture reagents were purchased from Gibco BRL, Life Technologies (Grand Island, NY, USA) or from Biochrom KG Seromed (Berlin, Germany). Cells were grown in Roswell Park Memorial Institute-1640 Medium (RPMI-1640; AsPC-1 cells) or Dulbecco’s Modified Eagle’s Medium (DMEM; PANC-1, MiaCapa-2, and Capan-1 cells) with GlutaMAX-I, supplemented with 10% (v/v) fetal bovine serum (FBS), 100 U/mL penicillin, and 100 μg/mL streptomycin, and kept in a controlled humidified air containing 5% CO2 at 37 °C. Splitting of cells with a ratio of 1:3 to 1:5 was performed when approaching confluency, using a trypsin/EDTA (0.05%/0.02% w/v) solution.
For internalization assays, AsPC-1, PANC-1, MiaCapa-2, and Capan-1 cells were seeded in six-well plates (≈1 × 10^6 cells per well) the day before the experiment. Cells were rinsed twice with ice-cold internalization medium (IM; culture medium supplemented by 1% (v/v) FBS), and then fresh IM was added (1.2 mL) at 37 °C, followed by test radiopeptide (250 fmol total peptide in 150 μL IPBS (0.5% w/v BSA–PBS,) 100,000–200,000 cpm). Non-specific internalization was determined by a parallel triplicate series containing 1 μM NT. After incubation at 37 °C, the plates were placed on ice, the medium was collected, and the plates were washed with IPBS (1 mL). Membrane-bound fractions were collected by incubating the cells 2 × 5 min in acid-wash solution (2 × 600 µL; 50 mM glycine buffer pH 2.8, 0.1 M NaCl) at room temperature. […] Sample radioactivity was measured on the gamma counter, and the percentage of specific internalized and membrane-bound fractions were calculated with Microsoft Excel (after subtracting the non-specific from the overall internalized and membrane-bound counts). Results represent the specific mean internalized ± SD of total added radioactivity per well from three experiments performed in triplicate. […]

MiaCapa-2 cells = test: NTS1R-specific cell uptake/internalization in MiaCapa-2 cells; format: cell-based, human; details: 1 h incubation at 37 °C
Procedure: as §1, §2

Capan-1 cells = test: NTS1R-specific cell uptake/internalization in Capan-1 cells; format: cell-based, human; details: 1 h incubation at 37 °C
Procedure: as §1, §2

AsPC-1 xenografts = details: mouse, in vivo; cited from earlier work
NTS1R [1] = tested on: NTS1R; design: method as in PMID 17594090; details: read-out: receptor affinity (IC50); cited from earlier work
[2] = mouse, 2 h; cited from earlier work
NTS1R [3] = tested on: NTS1R; design: method as in PMID 21883013; details: small number of patients ref 30; cited from earlier work
[4] = mouse, in vivo; cited from earlier work

In the case of “[^99mTc]Tc–[N4–Gly^7]NT(7–13) [[^99mTc]Tc–DT1]”, the “I, internalized fraction, specific” value (PANC-1 cells; PANC-1, 1 h incubation, of total-added activity) is given as 7.30±2.41, the specific cell uptake (PANC-1 cells; PANC-1 cells, 1 h incubation at 37 °C, NTS1R-specific) is given as 8.1% ± 2.8% and the specific cell binding (WiDr cells) is given as 10.1 ± 2.3%. The “I, internalized fraction, specific” value (AsPC-1 cells; AsPC-1, 1 h incubation, of total-added activity) was 14.11±2.28, the specific cell uptake (AsPC-1 cells) was 15.2% ± 2.6% and the specific cell uptake (MiaCapa-2 cells) was 2.7% ± 0.3%. The specific cell uptake (Capan-1 cells) was 0.4% ± 0.1%.

In the case of “Ac–Lys(1,4,7,10-tetraazacyclododecane–1,4,7,10-tetraacetic acid)–Pro–Me–Arg–Arg–Pro–Tyr–Tle–Leu–OH [[^68Ga]Ga–DOTA–NT–20.3]”, the kidney values (AsPC-1 xenografts) is listed as “about the same values”.

For “[^99mTc]Tc–[N4–βAla^7,Dab^9,Tle]NT(7–13) [[^99mTc]Tc–DT6]”, the specific cell binding (WiDr cells) is listed as 1.0 ± 0.4%, the IC50 (NTS1R [1]) is listed as 0.08 ± 0.02 nM and the “stability in mice plasma, intact” value [2] is listed as greater than 90%. The “NTS1R targeting of tumor lesions in patients” value (NTS1R [3]) was “poor NTS1R targeting of tumor lesions”.

For “[^68Ga]Ga–NODAGA–Lys(Cy5**)–AEEAc–[Me–Arg^8,Tle^12]NT(7−13)”, the kidney values (AsPC-1 xenografts) is given as 20 % IA/g.

For “[^99mTc]Tc–[N4–βAla^7,Dab^9]NT(7–13) [[^99mTc]Tc–DT5]”, the “renal values in mice” value [4] is given as “high renal values” and the specific cell uptake (AsPC-1 cells) is given as 8.4% ± 0.8%.
